# Experimental data taken from patent US9474730B2, “Methods and compositions for use with K-ras mediated disorders” (Board of Regents of the University of Texas System, priority 2012, dated 2016).
# Where a name gives a salt, the structure may show the parent alone.
# Columns and labels:
# [1] = target: T1, GFP-H-rasG12V in MDCK or BHK cells (Homo sapiens, UniProt P01112, G12V); test: Cellular fractionation (P100/S100) with quantitative Western blotting, GFP-H-rasG12V; assay type: cell-based, canine (MDCK), hamster (BHK); conditions: 4 μg/mL for MDCK and 6 μg/mL for BHK, 48 hours, vs vehicle
# T1 construct: MDCK and BHK cells expressing GFP-tagged full length constitutively active Ras (G12V) proteins; expressed in transfected cells
# Method: . Following treatment, membrane (P100) and soluble (S100) protein fractions were prepared and analyzed by quantitative Western blotting. Shown are representative Western blots (showing GFP-Ras) of membrane and soluble protein fractions from 3 independent experiments.
# (§1) Preparation of whole-cell lysates: cells were lysed in Buffer B (50 mM Tris [pH 7.5], 75 mM NaCl, 25 mM NaF, 5 mM MgCl2, 5 mM EGTA, 1 mM dithiothreitol, 100 μM NaVO4, 1% Nonidet P-40 plus protease inhibitors). Cellular fractionation: cells were incubated in Buffer A (10 mm Tris-HCl, pH 7.5, 25 mm NaF, 5 mm MgCl2, 1 mm EGTA, 1 mm dithiothreitol, 100 μm NaVO4 plus protease inhibitors) for 30 minutes on ice and lysed by passing through a 27 G needle 30 times. The post nuclear supernatant was centrifuged at 100,000 g for 30 minutes and the membrane pellet was resuspended in Buffer A containing 1% Triton X-100.
# (§2) Quantification of intensities was performed using FluorChemQ software.
# [2] = target: T2, GFP-K-rasG12V in MDCK or BHK cells (Homo sapiens, UniProt P01116, G12V); test: Cellular fractionation (P100/S100) with quantitative Western blotting, GFP-K-rasG12V; assay type: cell-based, canine (MDCK), hamster (BHK); conditions: 4 μg/mL for MDCK and 6 μg/mL for BHK, 48 hours, vs vehicle
# T2 construct: MDCK and BHK cells expressing GFP-tagged full length constitutively active Ras (G12V) proteins; expressed in transfected cells
# Method: Following treatment, membrane (P100) and soluble (S100) protein fractions were prepared and analyzed by quantitative Western blotting.
# as §1
# SDS-PAGE and Western blotting with the specified antibody were performed using 20 μg of each whole cell lysate/P100 fraction and volumes of S100 equal to that of the corresponding P100. Signal was detected by enhanced chemiluminescence (SuperSignal; Pierce, Thermo Fisher Scientific, Rockford, Ill.) and imaged by FluorChemQ (Alpha Inotech, San Leandro, Calif., USA). Quantification of intensities was performed using FluorChemQ software.
# [3] = system: BHK cells expressing constitutively active H-ras with endogenous K-ras knocked down; test: K-ras knockdown (siRNA) in H-rasG12V cells, pERK Western blotting; assay type: cell-based, hamster; conditions: then 6 μg/mL for 48 h
# Method: FIG. 7: Illustrates that H-rasG12V signals through endogenous K-ras: BHK cells stably expressing H-rasG12V were treated with vehicle or fendiline HCl (6 μg/mL) for 48 h. (A) ppMEK and ppERK in soluble protein fraction and pAkt levels in membrane protein fraction were measured by quantitative Western blotting. A representative blots are shown. (B) BHK cells stably expressing H-rasG12V were transfected with K-ras siRNA encoding plasmid. 24 h after transfection, cells were treated with vehicle or fendiline HCl (6 μg/mL) for a further 48 h. Whole cell lysates were prepared from serum starved cells and analyzed by quantitative Western blotting. Representative Western blots are shown. Data is shown as mean±SEM from 6 independent experiments. […] (*=p<0.05), and experimentation was performed in accordance with principles described herein;
# BHK cells expressing GFP-tagged H-rasG12V were transfected with the ON-Target K-ras specific siRNA pool or non-targeting control siRNA pool (Dharmacon, Inc., Lafayette, Colo., USA) according to manufacturer's protocol. At 24 h post-transfection, the cells were treated with vehicle or Fendiline HCl; 48 h later (72 h total knockdown time) the cells were lysed for Western blot analysis. […]
# as §2
# [4] = system: cells expressing constitutively active N-Ras; test: Signaling downstream of oncogenic N-ras; assay type: cell-based; conditions: data not shown
# Method: as §1, §2
# [5] = system: BHK cells expressing Myc-B-Raf V600E; test: Signaling in cells expressing constitutively active BRaf, Western blotting; assay type: cell-based, hamster; conditions: 6 μg/mL, 48 h, serum starved BHK cells
# Method: FIG. 6: Illustrates that fendiline HCl inhibition occurs at the level of Ras: Whole cell lysates from serum starved BHK cells expressing vector control, FLAG-C-Raf-DD-CAAX or Myc-B-Raf V600E treated with vehicle or fendiline HCl (6 μg/mL) for 48 h were analyzed by quantitative Western blotting. Representative Western blots of c-Raf, pMEK, pERK and Actin (loading control) are shown. Data is shown as mean±SEM from 3-4 independent experiments. Statistical significance was calculated using one way ANOVA and Student's T-test. (*=p<0.05), wherein experimentation was performed in accordance with principles described herein;
# as §1, §2
# [6] = target: T2, GFP-K-rasG12V in MDCK or BHK cells; test: Confocal fluorescence microscopy of GFP-tagged full length constitutively active Ras (G12V); assay type: cell-based, canine (MDCK), hamster (BHK); conditions: 48 h
# Method: FIG. 2: Illustrates that fendiline HCl mislocalizes GFP-K-rasG12V but not GFP-H-rasG12V: (A) MDCK or BHK [Baby Hamster Kidney] cells expressing GFP-K-rasG12V or GFP-H-rasG12V were grown on cover slips, treated with vehicle or fendiline HCl (4 μg/mL for MDCK and 6 μg/mL for BHK) for 48 h and fixed with paraformaldehyde. Cells were imaged using a confocal microscope. (B) BHK cells expressing GFP-K-rasG12V or GFP-H-rasG12V (green) were treated with vehicle or fendiline HCl (6 μg/mL) for 48 h. Following treatment, cells were fixed and immuno-labeled with antibodies against PDI (ER marker-red) or p58 (golgi marker-red). Colocalization between GFP and the respective marker protein is shown in yellow. Shown are representative images from 3 independent experiments wherein experimentation was performed in accordance with principles described herein;
# Cells were further analyzed using fluorescence microscopy, where cells were grown on coverslips, treated with 1% vehicle (DMSO) or varying concentrations of selected compounds for 48 h, and fixed with 4% paraformaldehyde. The coverslips were mounted in Mowiol® and visualized by confocal microscopy (Nikon A1) using a 60× objective. The cells were immuno-staining, where cells were fixed, permeabilized in 0.1% Triton in PBS for 30 min, and blocked with 0.2% bovine serum albumin and 0.2% fish skin gelatin in PBS for 30 min. […]
smiles,measurement,setting,value
CC(NCCC(c1ccccc1)c1ccccc1)c1ccccc1 (stereo not shown) [fendiline HCl],localization of GFP-H-rasG12V (fractionation),[1],does not alter the localization of GFP-H-rasG12V
same,soluble fraction of GFP-K-rasG12V,[2],increases the soluble fraction of GFP-K-rasG12V
same,pERK levels after K-ras knockdown,[3],did not further reduce pERK levels
same,signaling downstream of oncogenic N-ras,[4],had no effect on signaling downstream of oncogenic N-ras
same,signaling downstream of constitutively active BRaf,[5],inhibited signaling downstream of constitutively active BRaf
same,localization of GFP-K-rasG12V relative to ER (PDI) and Golgi (p58) markers,"[6]; BHK cells, 6 μg/mL, immunofluorescence",partially mislocalizes to the ER and golgi
same,"inhibition of plasma membrane localization, K isoform compared to H and N","[6]; GFP-tagged full length Ras (G12V), 4 μg/mL for MDCK and 6 μg/mL for BHK",more potent inhibitor of plasma membrane localization of the K isoform as compared to H (FIG. 2A) and N
